The record followed here is patent publication US5935966A, “Pyrimidine carboxylates and related compounds and methods for treating inflammatory conditions” (Signal Pharmaceuticals, Inc., priority 1996, dated 1999).

The first test relates to NFκB and AP-1. Kind of test: NFκB and AP-1 luciferase reporter assays in stable Jurkat T-cells (PMA/PHA stimulated). As to conditions: Homo sapiens, average of NFκB and AP-1 assays, read-out: ICm (average of the measurements obtained from the NFκB and AP-1 assays). The class given is cell-based, human. An excerpt:
Stable human Jurkat T-cells containing an NFκB binding site (from the MHC promoter) fused to a minimal SV-40 promoter driving luciferase expression were used in this experiment. Cells were split to 3×10^5 cells/mL every 2-3 days (cell concentration should not exceed 1×10^6 cells/mL to keep the cells proliferating in log phase). These cells were counted, resuspended in fresh medium containing 10% Serum-Plus at a density of 1×10^6 cells/mL and plated in 96 well round bottom plates (200 μ.LAMBDA. per well) 18 hours prior to starting the experiment.
Compounds of this invention, dissolved in dimethyl sulfoxide (3.3, 0.33 and 0.03 μg/mL), were then added to the 96 well plates containing the cells and the plates were incubated for 0.5 h at 37° C. Then 50 ng/mL of phorbol 12-myristate-13-acetate (PMA) and 1 μg/mL of phytohemagglutinin (PHA) were added to each well and the cells were incubated for an additional 5 h at 37° C. The plates were centrifuged at 2200 RPM for 3 minutes at room temperature and then the medium was removed. To each well was added 60 μL of cell lysis buffer and the plates were left at room temperature for 0.25 h. Then 40 μL of each cell extract was transferred to a black 96 well plate and 50 μL of luciferase substrate buffer was added. Luminescence was immediately measured using a Packard TopCount.
For AP-1, the assay was run as described above for NFκB except stable Jurkat T-cells were used that contained a collagenase promoter driving luciferase expression. In addition, the concentration of PMA used was 5 ng/mL.
The IC50 values reported in Table 3 are the average of the measurements obtained from the NFκB and AP-1 assays described above.
For orientation: Reporter assays use an easily measured gene product as a stand-in for the process of interest.
In the case of `CCOC(=O)c1cnc(NN2C(=O)C=C(c3ccccc3)C2=O)nc1C(F)(F)F` [Example 40, ETHYL 2-[N-(1'-AMINO-3'-PHENYLMALEIMIDO)]-4-TRIFLUOROMETHYLPYRIMIDINE-5-CARBOXYLATE], the IC50 turned out to be 1000 nM.

With `CCOC(=O)c1cnc(N(C)N2C(=O)C=C(C)C2=O)nc1C(F)(F)F` [Example 42, ETHYL 2-[N-(1'-AMINOCITRACONAMIDO)-N-METHYL]-4-TRIFLUOROMETHYLPYRIMIDINE-5-CARBOXYLATE], the IC50 was 5000 nM.

On to `CCOC(=O)c1cnc(N(C)N2C(=O)C=C(C)C2=O)nc1-c1ccc(Cl)s1` [Example 68, ETHYL 2-[N-(1'-AMINOCITRACONAMIDO)-N-METHYL]-4-[2'-(5"-HLOROTHIENYL]PYRIMIDINE-5-CARBOXYLATE], for which the IC50 is 400 nM.

Consider `CCOC(=O)c1cnc(N(C)N2C(=O)C=C(C)C2=O)nc1CC` [Example 73, ETHYL 2-[N-(1'-AMINOCITRACONAMIDO)-N-METHYL]-4-ETHYLPRYRIMIDINE-5-CARBOXYLATE], for which the IC50 turned out to be 50 nM.

Consider `CCCc1nc(N(C(C)=O)N2C(=O)C=C(C)C2=O)ncc1C(=O)OCC` [Example 74, ETHYL 2-[N-ACETYL-N-(1'-AMINOCITRACONAMIDO)]-4-PROPYLPYRIMIDINE-5-CARBOXYLATE], for which the IC50 turned out to be 450 nM.

`CCOC(=O)c1cnc(N(C(C)=O)N2C(=O)C=C(C)C2=O)nc1C(F)(F)F` [Example 75, ETHYL 2-[N-ACETYL-N-(1'-AMINOCITRACONAMIDO)]-4-TRIFLUOROMETHYLPYRIMIDINE-5-CARBOXYLATE]: the IC50 was 400 nM.

In the case of `COC(=O)c1cnc(NN2C(=O)C=C(C)C2=O)nc1C(F)(F)C(F)(F)F` [Example 77, METHYL 2-[N-(1'-AMINOCITRACONAMIDO)]-4-PENTAFLUOROETHYLPYRIMIDINE-5-CARBOXYLATE], the IC50 stood at 1300 nM.

`COC(=O)c1cnc(N(C)N2C(=O)C=C(C)C2=O)nc1C(F)(F)C(F)(F)F` [Example 78, METHYL 2-[N-(1'-AMINOCITRACONAMIDO)]-N-METHYL]-4-PENTAFLUOROETHYLPYRMIDINE-5-CARBOXYLATE]: the IC50 came out at 150 nM.

On to `CC1=CC(=O)N(Nc2ncc(C(=O)OC(C)(C)C)c(C(F)(F)F)n2)C1=O` [Example 79, t-BUTYL 2-[N-(1'-AMINOCITRACONAMIDO)]-4-TRIFLUOROMETHYLPYRIMIDINE-5-CARBOXYLATE], for which the IC50 was determined as 200 nM.

In the case of `COC(=O)c1cnc(N(C)N2C(=O)C=C(C)C2=O)nc1C(F)(F)F` [Example 81, METHYL 2-[N-(1'-AMINOCITRACONAMIDO)-N-METHYL]-4-TRIFLUOROMETHYLPYRIMIDINE-5-CARBOXYLATE], the IC50 came out at 100 nM.

Turning to `COC(=O)c1cnc(NN2C(=O)C=C(C)C2=O)nc1-c1cccs1` [Example 83, METHYL 2-[N-(1'-AMINOCITRACONAMIDO)]-4-(2'-THIENYL)PYRIMIDINE-5-CARBOXYLATE], the IC50 came out at 80 nM.

Take `CCOC(=O)c1cnc(N(Cc2ccccc2)N2C(=O)C=C(C)C2=O)nc1C(F)(F)F` [Example 84, ETHYL 2-[N-(1'-AMINOCITRACONAMIDO-N-BENZYL)]-4-TRIFLUOROMETHYLPYRIMIDINE-5-CARBOXYLATE]: the IC50 is 450 nM.

`CCOC(=O)c1cnc(N(C)N2C(=O)C=C(C)C2=O)nc1-c1cccs1` [Example 85, ETHYL 2-[N-(1'-AMINOCITRACONAMIDO-N-METHYL)]-4-(2'-THIENYL)PYRIMIDINE-5-CARBOXYLATE]: the IC50 was determined as 20 nM.

Take `CC1=CC(=O)N(Nc2ncc(C(=O)c3ccccc3)c(C(F)(F)F)n2)C1=O` [Example 87, 5-BENZOYL 2-[N-(1'-AMINOCITRACONAMIDO)]-4-TRIFLUOROMETHYLPYRIMIDINE]: the IC50 turned out to be 550 nM.

Regarding `CCOC(=O)c1cnc(NN2C(=O)C=C(C)C2=O)nc1-c1ccsc1` [Example 88, ETHYL 2-[N-(1'-AMINOCITRACONAMIDO)]-4-(3'-THIENYL)PYRIMIDINE-5-CARBOXYLATE], the IC50 turned out to be 500 nM.

For `CCOC(=O)c1cnc(N(C)N2C(=O)C=C(C)C2=O)nc1-c1ccsc1` [Example 89, ETHYL 2-[N-(1'-AMINOCITRACONAMIDO-N-METHYL)]-4-(3-THIENYL)PYRIMIDINE-5-CARBOXYLATE], the IC50 worked out at 200 nM.

On to `CCOC(=O)c1cnc(NN2C(=O)C=C(C)C2=O)nc1-c1ccc(C)s1` [Example 90, ETHYL 2-[N-(1'-AMINOCITRACONAMIDO)]-4-[2'-(5'-METHYLTHIENYL)]PYRIMIDINE-5-CARBOXYLATE], for which the IC50 turned out to be 60 nM.

As to `CCOC(=O)c1cnc(NN2C(=O)C=C(C)C2=O)nc1-c1ccco1` [Example 91, ETHYL 2-[N-(1'-AMINOCITRACONAMIDO)]-4-(2'-FURANYL)PYRIMIDINE-5-CARBOXYLATE], the IC50 was determined as 1100 nM.

With `CCOC(=O)c1cnc(N(C)N2C(=O)C=C(C)C2=O)nc1-c1ccc(C)s1` [Example 92, ETHYL 2-[N-(1'-AMINOCITRACONAMIDO-N-METHYL)]-4-[2'-(5'-METHYLTHIENYL)]PYRIMIDINE-5-CARBOXYLATE], the IC50 amounted to 300 nM.

As for `CCOC(=O)c1cnc(NN2C(=O)C=C(C)C2=O)nc1-c1cc2ccccc2s1` [Example 93, ETHYL 2-[N-(1'-AMINOCITRACONAMIDO)]-4-(2'-THIANAPHTHYL)PYRIMIDINE-5-CARBOXYLATE], the IC50 is 800 nM.

For `CCN(c1ncc(C(=O)OC)c(C(F)(F)F)n1)N1C(=O)C=C(C)C1=O` [Example 94, METHYL 2-[N-(1'-AMINOCITRACONAMIDO-N-ETHYL)]-4-TRIFLUOROMETHYLPYRIMIDINE-5-CARBOXYLATE], the IC50 was found to be 1100 nM.

`CCCC(=O)N(c1ncc(C(=O)OCC)c(C(F)(F)F)n1)N1C(=O)C=C(C)C1=O` [Example 95, ETHYL 2-[N-(1'-AMINOCITRACONAMIDO-N-BUTANOYL)]-4-TRIFLUOROMETHYLPYRIMIDINE-5-CARBOXYLATE]: the IC50 came to 300 nM.

`CCOC(=O)c1cnc(N(C(=O)NC)N2C(=O)C=C(C)C2=O)nc1C(F)(F)F` [Example 96, ETHYL 2-[N-(1'-AMINOCITRACONAMIDO)-N-(N'-METHYLCARBOXAMIDYL)]-4-TRIFLUOROMETHYLPYRIMIDINE-5-CARBOXYLATE]: the IC50 was 700 nM.

In the case of `CCOC(=O)c1cnc(N(C(=O)Cc2ccccc2)N2C(=O)C=C(C)C2=O)nc1C(F)(F)F` [Example 97, ETHYL 2-[N-(1'-AMINOCITRACONAMIDO)-N-(1-OXO-2"-PHENYLETHYL]-4-TRIFLUOROMETHYLPYRIMIDINE-5-CARBOXYLATE], the IC50 is 900 nM.

As for `CCOC(=O)c1cnc(NN2C(=O)C=C(C)C2=O)nc1COC` [Example 98, ETHYL 2-[N-(1'-AMINOCITRACONAMIDO)]-4-METHOXYMETHYL PYRIMIDINE-5-CARBOXYLATE], the IC50 stood at 6000 nM.

Regarding `CCOC(=O)c1cnc(N(C(=O)OCC)N2C(=O)C=C(C)C2=O)nc1C(F)(F)F` [Example 99, ETHYL 2-[N-(1'-AMINOCITRACONAMIDO)-N-(ETHOXYCARBONYL)]-4-TRIFLUOROMETHYLPYRIMIDINE-5-CARBOXYLATE], the IC50 was determined as 400 nM.

Take `CCOC(=O)c1cnc(N(C(=O)c2ccccc2)N2C(=O)C=C(C)C2=O)nc1C(F)(F)F` [Example 100, ETHYL 2-[N-(1'-AMINOCITRACONAMIDO)-N-BENZOYL]-4-TRIFLUOROMETHYLPYRIMIDINE-5-CARBOXYLATE]: the IC50 came out at 800 nM.

Turning to `CCc1nc(NN2C(=O)C=C(C)C2=O)ncc1C(=O)c1ccccc1` [Example 101, 5-BENZOYL 2-[N-(1'-AMINOCITRACONAMIDO)]-4-ETHYLPYRIMIDINE], the IC50 turned out to be 600 nM.

With `CCc1nc(N(C)N2C(=O)C=C(C)C2=O)ncc1C(=O)c1ccccc1` [Example 102, 5-BENZOYL 2-[N-(1'-AMINOCITRACONAMIDO)-N-METHYL]-4-ETHYLPYRIMIDINE], the IC50 is 400 nM.

In the case of `CCOC(=O)c1cnc(N(C)N2C(=O)C=C(C)C2=O)nc1C(F)(F)C(F)(F)F` [Example 103, ETHYL-2-[N-(1'-AMINOCITRACONAMIDO)-N-METHYL]-4-PENTAFLUOROETHYLPYRIMIDINE-5-CARBOXYLATE], the IC50 was found to be 400 nM.

With `CCOC(=O)c1cnc(N(C)N2C(=O)C=C(C)C2=O)nc1-c1cc2ccccc2s1` [Example 104, ETHYL 2-[N-(1'-AMINOCITRACONAMIDO)]-4-(2'-THIANAPHTHYL)PYRIMIDINE-5-CARBOXYLATE], the IC50 was 200 nM.

Turning to `CCOC(=O)c1cnc(NN2C(=O)C=C(C)C2=O)nc1-c1nccs1` [Example 105, ETHYL 2-[N-(1'-AMINOCITRACONAMIDO)]-4-(2'-THIAZOLYL)PYRIMIDINE-5-CARBOXYLATE], the IC50 stood at 2400 nM.

As for `CCOC(=O)c1cnc(N(C)N2C(=O)C=C(C)C2=O)nc1-c1nccs1` [Example 106, ETHYL 2-[N-(1'-AMINOCITRACONAMIDO)-N-METHYL]-4-(2'-THIAZOLYL)PYRIMIDINE-5-CARBOXYLATE], the IC50 turned out to be 1700 nM.

The same test, now with this note: average of NFκB and AP-1 assays, read-out: ICm (average of the measurements obtained from the NFκB and AP-1 assays).
For the compound “4-[N-(1'-AMINOCITRACONAMIDO)]-5-(N-METHYL TETRAZOLYL)-2-(2"-THIENYL)PYRIMIDINE [Example 135]”, the IC50 turned out to be 120 nM.

Regarding `CCOC(=O)c1cnc(NN2C(=O)C(CC)=C(CC)C2=O)nc1C(F)(F)F` [Example 41, ETHYL 2-[N-(1'-AMINO-3',4'-DIETHYLMALEIMIDO)]-4-TRIFLUOROMETHYLPYRIMIDINE-5-CARBOXYLATE], the IC50 was 3900 nM.
